Measured values as given in ChEMBL document CHEMBL1287771, “Novel hybrids of 15-membered 8a- and 9a-azahomoerythromycin A ketolides and quinolones as potent antibacterials” (2010).
≈ marks a conversion by molar mass, not a printed value.

Assays:
Type in all cases: functional
[1] = tested on: Streptococcus pyogenes; assay: Antibacterial activity against constitutive macrolide-lincosamide-streptogramin B-resistant Streptococcus pyogenes B0544 by agar microdilution method
[2] = tested on: Moraxella catarrhalis; assay: Antibacterial activity against Moraxella catarrhalis B0324 by agar microdilution method
[3] = tested on: Streptococcus pneumoniae; assay: Antibacterial activity against erythromycin A-susceptible Streptococcus pneumoniae B0541 by agar microdilution method
[4] = tested on: Streptococcus pyogenes; assay: Antibacterial activity against efflux-resistant Streptococcus pyogenes B0545 by agar microdilution method
[5] = tested on: Staphylococcus aureus; assay: Antibacterial activity against constitutive macrolide-lincosamide-streptogramin B-resistant Staphylococcus aureus B0330 by agar microdilution method
[6] = tested on: Staphylococcus aureus; assay: Antibacterial activity against inducible macrolide-lincosamide-streptogramin B-resistant Staphylococcus aureus B0538 by agar microdilution method
[7] = tested on: Streptococcus pneumoniae; assay: Antibacterial activity against efflux-resistant Streptococcus pneumoniae B0326 by agar microdilution method
[8] = tested on: Streptococcus pneumoniae; assay: Antibacterial activity against constitutive macrolide-lincosamide-streptogramin B-resistant Streptococcus pneumoniae B0627 by agar microdilution method
[9] = tested on: Streptococcus pyogenes; assay: Antibacterial activity against erythromycin A-susceptible Streptococcus pyogenes B0542 by agar microdilution method
[10] = tested on: Haemophilus influenzae; assay: Antibacterial activity against Haemophilus influenzae B0529 by agar microdilution method
[11] = tested on: Staphylococcus aureus; assay: Antibacterial activity against efflux-resistant Staphylococcus aureus B0331 by agar microdilution method
[12] = tested on: Streptococcus pyogenes; assay: Antibacterial activity against inducible macrolide-lincosamide-streptogramin B-resistant Streptococcus pyogenes B0543 by agar microdilution method
[13] = tested on: Staphylococcus aureus; assay: Antibacterial activity against erythromycin A-susceptible Staphylococcus aureus B0329 by agar microdilution method

SMILES | MIC [1] [µg/mL] | MIC [2] [µg/mL] | MIC [3] [µg/mL] | MIC [4] [µg/mL] | MIC [5] [µg/mL] | MIC [6] [µg/mL] | MIC [7] [µg/mL] | MIC [8] [µg/mL] | MIC [9] [µg/mL] | MIC [10] [µg/mL] | MIC [11] [µg/mL] | MIC [12] [µg/mL] | MIC [13] [µg/mL]
CC[C@H]1OC(=O)[C@H](C)[C@@H](O[C@@H]2C[C@@](C)(OC)[C@@H](O)[C@H](C)O2)[C@H](C)[C@@H](O[C@@H]2O[C@H](C)C[C@H](N(C)C)[C@H]2O)[C@](C)(OC/C=C/N[C@H](C)Cc2ccc([N+](=O)[O-])cc2)C[C@@H](C)NC(=O)[C@H](C)[C@H](O)[C@@]1(C)O | > 64 | 2 (≈ 2.07 µM) | ≤ 0.125 | 32 (≈ 33.1 µM) | > 64 | > 64 | 64 (≈ 66.2 µM) | > 64 | ≤ 0.125 | 16 (≈ 16.5 µM) | 64 (≈ 66.2 µM) | 8 (≈ 8.27 µM) | 0.5 (≈ 0.517 µM)
CC[C@H]1OC(=O)[C@H](C)C(=O)[C@H](C)[C@@H](O[C@@H]2O[C@H](C)C[C@H](N(C)C)[C@H]2O)[C@](C)(OC)C[C@@H](C)C(=O)[C@H](C)[C@H]2N(CCCCn3cnc(-c4cccnc4)c3)C(=O)O[C@]12C [TELITHROMYCIN] | 4 (≈ 4.93 µM) | ≤ 0.125 | 0.06 (≈ 0.0739 µM) | 0.25 (≈ 0.308 µM) | > 64 | 0.5 (≈ 0.616 µM) | 0.5 (≈ 0.616 µM) | ≤ 0.125 | ≤ 0.06 | 2 (≈ 2.46 µM) | 0.25 (≈ 0.308 µM) | ≤ 0.06 | ≤ 0.125
C=CCO[C@]1(C)C[C@@H](C)NC(=O)[C@H](C)[C@H](O)[C@@](C)(O)[C@@H](CC)OC(=O)[C@H](C)[C@@H](O[C@@H]2C[C@@](C)(OC)[C@@H](O)[C@H](C)O2)[C@H](C)[C@H]1O[C@@H]1O[C@H](C)C[C@H](N(C)C)[C@H]1O | > 64 | ≤ 0.125 | ≤ 0.125 | 16 (≈ 20.3 µM) | > 64 | > 64 | 8 (≈ 10.1 µM) | > 64 | ≤ 0.125 | 1 (≈ 1.27 µM) | 64 (≈ 81.1 µM) | 16 (≈ 20.3 µM) | 0.25 (≈ 0.317 µM)
CC[C@H]1OC(=O)[C@H](C)[C@@H](O[C@@H]2C[C@@](C)(OC)[C@@H](O)[C@H](C)O2)[C@H](C)[C@@H](O[C@@H]2O[C@H](C)C[C@H](N(C)C)[C@H]2O)[C@](C)(OC/C=C/NCCc2ccc([N+](=O)[O-])cc2)C[C@@H](C)NC(=O)[C@H](C)[C@H](O)[C@@]1(C)O | > 64 | 0.25 (≈ 0.262 µM) | 0.06 (≈ 0.0629 µM) | 16 (≈ 16.8 µM) | > 64 | 64 (≈ 67.1 µM) | 4 (≈ 4.2 µM) | 32 (≈ 33.6 µM) | ≤ 0.06 | 4 (≈ 4.2 µM) | 32 (≈ 33.6 µM) | 2 (≈ 2.1 µM) | 0.5 (≈ 0.525 µM)
CC[C@H]1OC(=O)[C@H](C)C(=O)[C@H](C)[C@@H](O[C@@H]2O[C@H](C)C[C@H](N(C)C)[C@H]2O)[C@](C)(OCCCC2CNc3ccccc3C2)C[C@@H](C)NC(=O)[C@H](C)[C@H](O)[C@@]1(C)O (stereo partly specified) | > 64 | 1 (≈ 1.31 µM) | ≤ 0.125 | 8 (≈ 10.5 µM) | 64 (≈ 84 µM) | > 64 | 8 (≈ 10.5 µM) | 64 (≈ 84 µM) | ≤ 0.125 | 16 (≈ 21 µM) | 64 (≈ 84 µM) | 16 (≈ 21 µM) | 2 (≈ 2.62 µM)
CC[C@H]1OC(=O)[C@H](C)C(=O)[C@H](C)[C@@H](O[C@@H]2O[C@H](C)C[C@H](N(C)C)[C@H]2O)[C@](C)(OC/C=C/c2cnc3ccccc3c2)C[C@@H](C)C(=O)N[C@H](C)[C@H](O)[C@@]1(C)O | > 64 | 2 (≈ 2.65 µM) | 2 (≈ 2.65 µM) | 4 (≈ 5.29 µM) | > 64 | 16 (≈ 21.2 µM) | 8 (≈ 10.6 µM) | 64 (≈ 84.7 µM) | 0.5 (≈ 0.661 µM) | 32 (≈ 42.3 µM) | 16 (≈ 21.2 µM) | 64 (≈ 84.7 µM) | 8 (≈ 10.6 µM)
CC[C@H]1OC(=O)[C@H](C)C(=O)[C@H](C)[C@@H](O[C@@H]2O[C@H](C)C[C@H](N(C)C)[C@H]2O)[C@](C)(OCC=Cc2cnc3ccccc3c2)C[C@@H](C)C(=O)[C@H](C)[C@H]2NC(=O)O[C@@]21C [CETHROMYCIN] | 1 (≈ 1.31 µM) | ≤ 0.125 | 0.06 (≈ 0.0783 µM) | ≤ 0.125 | > 64 | 0.25 (≈ 0.326 µM) | ≤ 0.06 | ≤ 0.125 | ≤ 0.06 | 2 (≈ 2.61 µM) | 0.25 (≈ 0.326 µM) | ≤ 0.06 | ≤ 0.06
CC[C@H]1OC(=O)[C@H](C)C(=O)[C@H](C)[C@@H](O[C@@H]2O[C@H](C)C[C@H](N(C)C)[C@H]2O)[C@](C)(OCC(O)CNCCNc2ccc3c(c2F)c(=O)c(C(=O)O)cn3C2CC2)C[C@@H](C)NC(=O)[C@H](C)[C@H](O)[C@@]1(C)O (stereo partly specified) | 8 (≈ 8.42 µM) | 2 (≈ 2.11 µM) | ≤ 0.125 | 16 (≈ 16.8 µM) | > 64 | 1 (≈ 1.05 µM) | 2 (≈ 2.11 µM) | 2 (≈ 2.11 µM) | ≤ 0.125 | 2 (≈ 2.11 µM) | 4 (≈ 4.21 µM) | 1 (≈ 1.05 µM) | 1 (≈ 1.05 µM)
CC[C@H]1OC(=O)[C@H](C)C(=O)[C@H](C)[C@@H](O[C@H]2C[C@H](O)[C@@H](N(C)C)[C@@H](C)O2)[C@](C)(OC/C=C/c2cnc3ccccc3c2)C[C@@H](C)/C(=N\O)[C@H](C)[C@@H](O)[C@]1(C)O | 32 (≈ 42.3 µM) | 4 (≈ 5.29 µM) | ≤ 0.125 | ≤ 0.125 | > 64 | ≤ 0.125 | ≤ 0.125 | 4 (≈ 5.29 µM) | ≤ 0.125 | 8 (≈ 10.6 µM) | 0.5 (≈ 0.661 µM) | ≤ 0.125 | ≤ 0.125
CC[C@H]1OC(=O)[C@H](C)C(=O)[C@H](C)[C@@H](O[C@@H]2O[C@H](C)C[C@H](N(C)C)[C@H]2O)[C@](C)(OCC(O)CNC2CN(S(=O)(=O)c3ccc4ccncc4c3)CCN2)C[C@@H](C)NC(=O)[C@H](C)[C@H](O)[C@@]1(C)O (stereo partly specified) | > 64 | 8 (≈ 8.54 µM) | ≤ 0.125 | 16 (≈ 17.1 µM) | > 64 | 16 (≈ 17.1 µM) | 64 (≈ 68.3 µM) | 32 (≈ 34.1 µM) | ≤ 0.125 | > 64 | 16 (≈ 17.1 µM) | 16 (≈ 17.1 µM) | 8 (≈ 8.54 µM)
CC[C@H]1OC(=O)[C@H](C)C(=O)[C@H](C)[C@@H](O[C@@H]2O[C@H](C)C[C@H](N(C)C)[C@H]2O)[C@](C)(OCC(O)CN2CCN(c3cc4c(=O)c(C(=O)O)cn(C5CC5)c4cc3Cl)CC2)C[C@@H](C)NC(=O)[C@H](C)[C@H](O)[C@@]1(C)O (stereo partly specified) | 4 (≈ 4.03 µM) | ≤ 0.125 | ≤ 0.125 | 0.5 (≈ 0.504 µM) | > 64 | 1 (≈ 1.01 µM) | 0.25 (≈ 0.252 µM) | 1 (≈ 1.01 µM) | ≤ 0.125 | 1 (≈ 1.01 µM) | 0.25 (≈ 0.252 µM) | 1 (≈ 1.01 µM) | 1 (≈ 1.01 µM)
C=CCO[C@]1(C)C[C@@H](C)C(=O)N[C@H](C)[C@H](O)[C@@](C)(O)[C@@H](CC)OC(=O)[C@H](C)C(=O)[C@H](C)[C@H]1O[C@@H]1O[C@H](C)C[C@H](N(C)C)[C@H]1O [3-O-DESCLADINOSYL-3-OXO-6-O-ALLYL-9A-AZA-9A-HOMOERYTHROMYCIN A] | > 64 | 16 (≈ 25.4 µM) | > 64 | > 64 | > 64 | > 64 | > 64 | > 64 | > 64 | > 64 | > 64 | > 64 | > 64
